Marks after values point to notes of the source that are not given here.
Legend:
[1] = tested on: PPI disrupted by psychostimulants; test: Prepulse inhibition (PPI) of the startle response disrupted by psychostimulants; format: in vivo, Male Sprague-Dawley rats; details: for % PPI PP3: pre-pulse 3 dB above background; for % PPI PP6: pre-pulse 6 dB above background; for % PPI PP12: pre-pulse 12 dB above background
Procedure: Male Sprague-Dawley rats were treated with Drug 1 (IP) followed 20 minutes later by Drug 2 (IP or SC as indicated in the methods). Ten minutes following administration of Drug 2 (except in the case of apomorphine where animals were immediately tested post-apomorphine), rats were placed in the startle chamber and allowed 5 minutes to acclimate with 65-dB background white noise. The acclimation period was followed by a ˜15 minute test session during which time rats were presented with 40 ms 120 dB startle pulses alone or preceded 100 ms by a pre-pulse 3, 6, or 12 dB above background. These four types of active stimuli were presented in pseudorandom order along with no-stimulation trials to assess baseline activity throughout testing. An average of 20 s separated each trial type. The maximum startle magnitude was measured for every trial type. PPI for each animal was calculated as the percentage startle magnitude to the pre-pulse+pulse or no-stimulation trials relative to the pulse-alone startle magnitude. * and ** indicate differences relative to vehicle+vehicle-treated animals (P<0.05 and P<0.01, respectively).
Prepulse inhibition of the startle response. Sprague Dawley male rats (˜250 g-300 g) are used (n=8/group). Rats are administered drug 1 (vehicle, Compound A, Compound B, or clonidine) followed 20 minutes later by amphetamine (2 mg/kg, s.c.), apomorphine (0.5 mg/kg s.c), PCP (2 mg/kg i.p.) or vehicle (0.9% NaCl, s.c.). Either immediately (apomorphine) or 10 minutes (amphetamine, PCP, or vehicle) following injection of drug 2, animals are placed in the SR-Lab startle chamber (San Diego Instruments, San Diego Calif.). Each rat is acclimated to the chamber for 5 minutes with 65 dB background noise. This acclimation period is followed by a ˜15 minute PPI test session where rats are presented with 120 dB startle pulses without a pre-pulse or pulses preceded by a pre-pulse of 3, 6, or 12 dB above background noise. These active stimuli are presented in pseudorandom order along with no-sound trials, with an average of 20 sec separating each trial (range 5-27 seconds). A sensor in the chamber records the startle magnitude following all stimuli presented. % PPI represents the percentage startle magnitude to the pre-pulse+pulse or no-stim trials relative to the pulse-alone startle magnitude.
The alpha 2B compounds were administered i.p. or p.o., PCP was administered i.p., and apomorphine and amphetamine were administered s.c.

[2] = tested on: amphetamine-induced stereotypy; test: Amphetamine-induced stereotypy (open field locomotor behavior); format: in vivo, C57B/6 male mice; details: for AMBULATIONS: indicative of hyperactivity; for FINE MOVEMENTS: scored 60 min post-amphetamine, indicative of stereotypy; for inhibition of amphetamine-induced stereotypy (in words): high-dose psychostimulant administration
Procedure: C57B/6 male mice were placed in an open field apparatus and allowed to habituate for 15-30 minutes. Compounds A or B were administered PO at 0, +15, or +30 minutes relative to amphetamine (8 mg/kg) administration (Compound B was also administered 15 minutes pre-amphetamine), and locomotor behavior was scored for an additional 60 minutes post-amphetamine. Amphetamine was administered IP. Locomotion was separated into “fine movements” (indicative of stereotypy) and “ambulations” (indicative of hyperactivity).
Amphetamine induced stereotypy. C57B/6 male mice were placed in an open field apparatus and allowed to habituate for 15-30 minutes. Compounds A or B were administered at 0, +15, or +30 minutes relative to amphetamine (8 mg/kg) administration (Compound B was also administered 15 minutes pre-amphetamine), and locomotor behavior was scored for an additional 60 minutes post-amphetamine. Locomotion was separated into “fine movements” (indicative of stereotypy) and “ambulations” (indicative of hyperactivity).

[3] = molecular target: T1, alpha-2A receptor (Homo sapiens, UniProt P08913); test: Alpha-adrenergic receptor activation (efficacy relative to brimonidine, e.g. RSAT); format: cell-based; details: lacks significant activity = less than 40% of the efficacy of brimonidine at the alpha-2A receptor subtype
T1 sequence (P08913 1-465): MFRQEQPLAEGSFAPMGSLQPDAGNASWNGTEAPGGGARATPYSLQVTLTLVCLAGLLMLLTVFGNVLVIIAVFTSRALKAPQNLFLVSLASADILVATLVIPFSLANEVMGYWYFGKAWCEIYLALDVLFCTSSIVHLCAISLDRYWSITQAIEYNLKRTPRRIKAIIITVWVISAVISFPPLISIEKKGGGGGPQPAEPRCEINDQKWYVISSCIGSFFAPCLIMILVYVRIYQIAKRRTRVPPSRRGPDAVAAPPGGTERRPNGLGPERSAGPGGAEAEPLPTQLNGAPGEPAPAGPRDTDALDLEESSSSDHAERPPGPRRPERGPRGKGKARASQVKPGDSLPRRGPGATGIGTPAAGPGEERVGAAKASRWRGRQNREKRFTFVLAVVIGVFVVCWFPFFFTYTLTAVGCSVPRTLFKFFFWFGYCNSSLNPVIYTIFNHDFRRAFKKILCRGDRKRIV
Description: The methods of the present invention use alpha-2 agonists lacking significant activity at the alpha-2A receptor subtype. An agonist lacks significant alpha-2A receptor activity if the agonist has less than 40% of the efficacy of brimonidine at the alpha-2A receptor subtype. Compounds of the invention include, therefore, alpha-2B receptor agonists lacking significant alpha-2A activity; alpha 2B/2C receptor agonists lacking significant alpha-2A activity; and alpha-2C receptor agonists lacking significant alpha-2A activity.
Efficacy, also known as intrinsic activity, is a measure of maximal receptor activation achieved by a compound and can be determined using any accepted assay of alpha-adrenergic receptor activation, such as a cAMP or Receptor Selection and Amplification Technology (RSAT). […]
The RSAT assay measures receptor-mediated loss of contact inhibition resulting in selective proliferation of receptor-containing cells in a mixed population of confluent cells. The increase in cell number is assessed with an appropriate detectable marker gene such as beta-galactosidase, if desired, in a high throughput or ultra high throughput assay format. […]
As an example, an RSAT assay can be performed essentially as follows. […] The EC50 and maximal effect (i.e., efficacy) of each drug at each receptor is determined.

[4] = Drug 1 30 ug/kg, Drug 2 Apo (0.5 mg/kg)
[5] = Drug 1 30 ug/kg, Drug 2 PCP (2 mg/kg)
[6] = Drug 1 0.03 mg/kg, Drug 2 Amph (2 mg/kg)
[7] = compound PO at 0 min post-amphetamine (8 mg/kg IP)
[8] = compound PO at 15 min post-amphetamine (8 mg/kg IP)
[9] = compound PO at 30 min post-amphetamine (8 mg/kg IP)
[10] = compound PO at -15 min relative to amphetamine (8 mg/kg IP)
[11] = Drug 1 10 ug/kg, Drug 2 Amph (2 mg/kg)
[12] = Drug 1 30 ug/kg, Drug 2 Amph (2 mg/kg)
[13] = Drug 1 100 ug/kg, Drug 2 Amph (2 mg/kg)

| Compound | % PPI PP3 [1, 4] [%] | % PPI PP6 [1, 4] [%] | % PPI PP12 [1, 4] [%] | % PPI PP3 [1, 5] [%] | % PPI PP6 [1, 5] [%] | % PPI PP12 [1, 5] [%] | AMBULATIONS [2, 7] | FINE MOVEMENTS [2, 7] | AMBULATIONS [2, 8] | FINE MOVEMENTS [2, 8] | AMBULATIONS [2, 9] | FINE MOVEMENTS [2, 9] | inhibition of amphetamine-induced stereotypy (in words) [2] | alpha-2A receptor activity (in words) [3] | % PPI PP3 [1, 13] [%] | % PPI PP6 [1, 13] [%] | % PPI PP12 [1, 13] [%] | also measured |
| --- | --- | --- | --- | --- | --- | --- | --- | --- | --- | --- | --- | --- | --- | --- | --- | --- | --- | --- |
| Clc1cccc(Cl)c1N=C1NCCN1 [Clonidine, reference compound] | 20.0 ± 10.6 | 31.5 ± 11.0 | 24.5 | 31.7 ± 13.5 | 30.1 ± 13.1 | 53.7 |  |  |  |  |  |  |  |  |  |  |  | % PPI PP3 [1, 6]: 21.8 ± 9.1%; % PPI PP6 [1, 6]: 35.5 ± 8.6%; % PPI PP12 [1, 6]: 51.3% |
| O=C1c2ccccc2CC[C@H]1Cc1c[nH]c(=S)[nH]1 [Compound B] |  |  |  |  |  |  | 9954.8 ± 1042.9 | 736.7 ± 103.4^⋄ | 7226.2 ± 457.3 | 1096.3 ± 79.2^⋄ | 8453.8 ± 461.7 | 1284.8 ± 48.8^⋄ | effectively inhibit stereotypy | lack significant alpha-2A receptor activity | 34.5 ± 5.7 | 45.3 ± 7.4 | 67.0 | AMBULATIONS [2, 10]: 7258.8 ± 672.4; FINE MOVEMENTS [2, 10]: 937.3 ± 47.3^⋄; % PPI PP3 [1, 11]: 28.2 ± 7.4%; % PPI PP6 [1, 11]: 30.9 ± 6.2%*; % PPI PP12 [1, 11]: 46.9%; % PPI PP3 [1, 12]: 25.3 ± 9.2%; % PPI PP6 [1, 12]: 48.6 ± 5.3%; % PPI PP12 [1, 12]: 60.0% |
| OCCNC(=S)NCc1cccc(Cl)c1F [Compound A] | 38.5 ± 7.7 | 53.8 ± 6.2 | 58.9 | 40.2 ± 7.5 | 50.6 ± 5.5 | 62.9 | 6338.0 ± 714.1 | 810.1 ± 112.5^⋄ | 14056.6 ± 708.7 | 1312.9 ± 205.2^⋄ | 7494.6 ± 612.3 | 2581.3 ± 359.1 | effectively inhibit stereotypy | lack significant alpha-2A receptor activity | 38.6 ± 7.1 | 50.2 ± 4.7 | 68.5 | restoration of PPI disrupted by psychostimulants (in words) ([1]; amphetamine, apomorphine, and phencyclidine): significantly inhibited the disruption of PPI |

From patent publication US8455548B2, “Method of treating sensorimotor disorders with alpha-2 adrenergic receptor agonists” (Allergan, Inc., priority 2007, dated 2013)
